Data taken from patent publication US10646498B2, “Composition for preventing, alleviating or treating muscle diseases or improving muscular function” (AAT COSTECH CO., LTD., priority 2015, dated 2020).

Tests used:
myogenin = myogenin mRNA expression in L6 muscle cells (RT-PCR), muscle differentiation; type: cell-based; details: fucosterol 1 and 10 μM, 6 days, vs 0.01% DMSO control, FIG. 3
Experimental: (§1) As muscle cells, L6 myoblasts (ATCC) were added to a 6-well plate at a density of 2×10^5 cells/mL together with DMEM (Hyclone) supplemented with 10% FBS (Hyclone). When the cell density reached approximately 80 to 85%, the medium contained in the wells was removed, and the fucosterol isolated and purified in Example 3 was dissolved at concentrations of 1 and 10 μM in DMEM (Hyclone) supplemented with 2% HS (Hyclone), and the cells were treated with the fucosterol to induce myotube differentiation. In this case, a group in which the cells were treated with 0.01% DMSO instead of the sample was used as the control. This procedure was carried out at an interval of 2 days for 6 days to differentiate the cells, and total RNA was isolated using a TRIzol reagent (Invitrogen, Carlsbad, Calif., USA). The isolated total RNA was quantified using NanoDrop 1000 (Thermo Fisher Scientific Inc., MA, USA). 16 μL of the quantified RNA was synthesized into cDNA using Reverse Transcriptase Premix (ELPIS-Biotech) and a PCR machine (Gene Amp PCR System 2700, Applied Biosystems, MA, USA) under conditions of 42° C. and 55 minutes and 70° C. and 15 minutes. […]

p-4EBP1 = p-4EBP1 protein expression in L6 muscle cells (Western blot); type: cell-based; details: fucosterol 1 and 10 μM, FIG. 2
Experimental: (§2) As muscle cells, L6 myoblasts (ATCC CRL-1458, Manassas, Va., USA) were added to a 6-well plate at a density of 2×10^5 cells/mL together with a Dulbecco's modified Eagle's medium (DMEM; Hyclone) supplemented with 10% fetal bovine serum (FBS; Hyclone, Logan, Utah, USA). […] In this case, a group in which the cells were treated with 0.01% DMSO instead of the sample was used as the control. This procedure was carried out at an interval of 2 days for 6 days to differentiate the cells, and the cells were then dissolved in an NP-40 buffer (ELPIS-Biotech, Daejeon, Korea) containing a proteinase inhibitor cocktail. The cells lysed in the buffer were transferred to a 1.5 ml tube, and centrifuged at 13,000 rpm for 10 minutes to collect only a supernatant. The supernatant was quantified using a Bradford method (Bradford, Bio-Rad Laboratories Inc., Hercules, Calif., USA). The quantified proteins were boiled for 5 minutes, and separated through 10% SDS-PAGE, and the separated proteins were transferred to a nitrocellulose membrane. A p-mTOR primary antibody (Cell Signaling Technology, Beverly, Mass., USA) was diluted with 2.5% bovine serum albumin (BSA) at a ratio of 1:1,000, and reacted with the proteins transferred to the nitrocellulose membrane at room temperature for 20 hours. […]

p-mTOR = p-mTOR protein expression in L6 muscle cells (Western blot); type: cell-based; details: fucosterol 10 μM, treated every 2 days for 6 days, vs 0.01% DMSO control, FIG. 1
Experimental: As muscle cells, L6 myoblasts (ATCC CRL-1458, Manassas, Va., USA) were added to a 6-well plate at a density of 2×10^5 cells/mL together with a Dulbecco's modified Eagle's medium (DMEM; Hyclone) supplemented with 10% fetal bovine serum (FBS; Hyclone, Logan, Utah, USA). […] The supernatant was quantified using a Bradford method (Bradford, Bio-Rad Laboratories Inc., Hercules, Calif., USA). The quantified proteins were boiled for 5 minutes, and separated through 10% SDS-PAGE, and the separated proteins were transferred to a nitrocellulose membrane. […]
Muscle cells were treated with the ultra-high pressure extract of Sargassum fulvellum prepared in Example 1-6, the supercritical fluid extract of Sargassum fulvellum prepared in Example 1-7, the subcritical fluid extract of Sargassum fulvellum prepared in Example 1-8, the ultra-high pressure extract of Sargassum fusiforme prepared in Example 2-6, the supercritical fluid extract of Sargassum fusiforme prepared in Example 2-7, and the subcritical fluid extract of Sargassum fusiforme prepared in Example 2-8 at a concentration of 20 ppm in the same manner as in Example 4. A p-mTOR protein band was chromogenically developed using an ECL Western blotting detection reagent (Amersham, Tokyo, Japan), and a density of the chromogenically developed protein band was measured using a G;BOX EF imaging system (Syngene, Cambridge, UK). […]

MyoD = MyoD mRNA expression in L6 muscle cells (RT-PCR), muscle differentiation; type: cell-based; details: fucosterol 1 and 10 μM, 6 days, vs 0.01% DMSO control, FIG. 3
Experimental: as §1

p-p70S6K = p-p70S6K protein expression in L6 muscle cells (Western blot); type: cell-based; details: fucosterol 1 and 10 μM, FIG. 2
Experimental: as §2

[1] = test system: Wistar rats with TNF-α-induced muscle atrophy; details: 300 mg/kg, 1344 h
Experimental: Five-week-old Wistar rats (Daehan Biolink, Korea) were adapted for one week, and fed 100 ng/g of TNF-α for 2 weeks to induce muscle atrophy. Thereafter, the rats were randomly divided into a total of 6 groups based on the weights thereof, each group consisting of 8 rats, which were then used in this experiment. […] In this case, a group in which TNF-α was added to the same amount of 0.25% carboxymethyl cellulose which the experimental group ingested was used as the control.
After the sample was administered for 8 weeks, muscles were incised from right lower calves of the rats, and weighed using a microbalance (Mettler PE160, USA).

MuRF-1 = MuRF-1 mRNA expression in TNF-α-treated L6 muscle cells (RT-PCR), muscle protein degradation; type: cell-based; details: differentiated L6 muscle cells, 50 ng/mL TNF-α, fucosterol 1 and 10 μM, 6 hours, FIG. 6
Experimental: (§3) As muscle cells, L6 myoblasts (ATCC) were added to a 6-well plate at a density of 2×10^5 cells/mL together with DMEM (Hyclone) supplemented with 10% FBS (Hyclone). When the cell density reached approximately 80 to 85%, the medium contained in the wells was removed, and the cells were treated with DMEM (Hyclone) supplemented with 2% HS (Hyclone) to induce myotube differentiation. Cell differentiation was performed for a total of 6 days while replacing the medium with a fresh medium every 2 days. After the differentiation, the fucosterol isolated and purified in Example 3 was dissolved at concentrations of 1 and 10 μM in DMEM (Hyclone) supplemented with 50 ng/mL of tumor necrosis factor alpha (TNF-α; PeproTech, Rocky Hills, N.J., USA), and the cells were then treated with the fucosterol. After 6 hours, total RNA was isolated using a TRIzol reagent (Invitrogen). The isolated total RNA was quantified using NanoDrop 1000 (Thermo Fisher Scientific Inc., MA, USA). 16 μL of the quantified RNA was synthesized into cDNA using Reverse Transcriptase Premix (ELPIS-Biotech) and a PCR machine (Gene Amp PCR System 2700; Applied Biosystems) under conditions of 42° C. and 55 minutes and 70° C. and 15 minutes. […]

atrogin-1 = atrogin-1 mRNA expression in TNF-α-treated L6 muscle cells (RT-PCR), muscle protein degradation; type: cell-based; details: differentiated L6 muscle cells, 50 ng/mL TNF-α, fucosterol 1 and 10 μM, 6 hours, FIG. 6
Experimental: as §3

SMILES: C/C=C(\CC[C@@H](C)[C@H]1CC[C@H]2[C@@H]3CC=C4C[C@@H](O)CC[C@]4(C)[C@H]3CC[C@]12C)C(C)C [Fucosterol, (3-beta,24E)-stigmasta-5,24(28)-dien-3-ol]
- mRNA expression of myogenin (myogenin): increased
- protein expression level of p-4EBP1 (p-4EBP1): increased
- expression level of p-mTOR (p-mTOR): increased
- mRNA expression of MyoD (MyoD): increased
- protein expression level of p-p70S6K (p-p70S6K): increased
- Mean weight of calf muscles [1]: 522.1 ± 30.6 mg
- increase in weights of the muscles compared to the control [1]: 25.78%
- mRNA expression of MuRF-1 (MuRF-1): decreased
- mRNA expression of atrogin-1 (atrogin-1): decreased
